For data set [1], the target named is Fibrinogen binding to human thrombocytes. Briefly: Fibrinogen binding to human thrombocytes. The settings on record: 125I fibrinogen; gel-filtered human platelets; ADP; 20 minutes at ambient temperature; read-out: Fibrinogen binding test IC50. How it is done:
Fibrinogen binding to human thrombocytes The blood obtained by puncturing an antecubital vein is anticoagulated with trisodium citrate (final concentration: 13 mM) and centrifuged for 10 minutes at 170 xg. The supernatant platelet-rich plasma is poured onto a Sepharose 2B column (Pharmacia) and eluted with a solution of 90 mM common salt, 14 mM trisodium citrate, 5 mM glucose and 50 mM Tris(hydroxymethyl)aminomethane, adjusted to pH 7.4. The gel-filtered platelets (GFP) appearing before the plasma proteins are used for the binding experiments. 50 μl of a 60 mM calcium chloride solution, 50 μl of a 0.6 mM adenosine diphosphate solution, 100 μl of substance solution or solvent and 50 μl of fibrinogen solution (containing 3 μg of ^125 I fibrinogen) are added to 750 μl of GFP and incubated for 20 minutes at ambient temperature. The non-specific binding is determined in the presence of 3 mg/ml of cold fibrinogen. 900 μl of the incubated material are carefully pipetted onto 250 μl of silicon oil (AP 38: AR 20, 1:2 v/v, Wacker Chemie) in Eppendorf tubes and centrifuged for 2 minutes at 10,000 xg. The aqueous supernatant and some of the oil are drawn off, the tips of the tubes are cut off together with the platelet pellet and the quantity of bound fibrinogen is determined in a gamma counter. The concentration of substance which brings about a 50% inhibition in fibrinogen binding is determined from a series of concentrations and is given as the IC50 value.

The subject of data set [2] is thrombocyte (platelet) aggregation. Briefly: Antithrombotic activity: collagen-induced thrombocyte aggregation in platelet rich plasma (Born and Cross). The class given is cell-based. The settings on record: Homo sapiens, platelet rich plasma from healthy test subjects, 10 minutes at 37° C. preincubation, 50% change in optical density, read-out: Inhibition of platelet aggregation EC50. The protocol: 2. Antithrombotic activity Method: Thrombocyte aggregation is measured in platelet rich plasma from healthy test subjects using the Born and Cross method (J. Physiol. 170, 397 (1964)). In order to inhibit coagulation the blood is mixed with sodium citrate 3.14% in a ratio by volume of 1:10. Collagen-induced aggregation: The course of the decrease in optical density of the platelet suspension is photometrically measured and recorded after the addition of the substance which triggers aggregation. The rate of aggregation is deduced from the gradient angle of the density curve. The point on the curve where there is maximum transmittance is used to calculate the optical density. The quantity of collagen used is as little as possible but sufficient to give an irreversible reaction curve. Standard commercial collagen produced by Hormonchemie of Munich is used. Before the addition of the collagen the plasma is incubated for 10 minutes at 37° C. with the substance. From the measurements obtained, an EC50 is determined graphically, relating to a 50% change in optical density in terms of the inhibition of aggregation.

The next data set relates to mice. As to the kind of experiment: tolerability after intravenous administration in mice. It is filed as in vivo. To be noted: for sedation during the injection phase: mouse, in vivo, iv, 30 mg/kg.
In data set [3] the test system is collagen-induced thrombocyte aggregation. Briefly: collagen-induced thrombocyte aggregation ex vivo in Rhesus monkeys after oral administration. The settings on record: oral administration of 1 mg/kg. The protocol: Moreover, the compound of Example 8(5) inhibits the collagen-induced thrombocyte aggregation ex vivo in Rhesus monkeys, for example, after oral administration of 1 mg/kg for longer than 8 hours.

A further data set has as its system rat. Briefly: tolerability after peroral administration in the rat. The class given is in vivo. The settings on record: 2.0 g/kg.
The subject of another data set is mouse. Briefly: tolerability after peroral administration in the mouse. It is filed as in vivo. To be noted: 2.0 g/kg.

Structures can show the parent of a compound that is named as a salt.

As a reminder, the IC50 is the concentration at which inhibition is half-maximal. What is called EC50 is the concentration that produces a half-maximal response. `Cl.N=C(N)c1ccc(-c2ccc(C(=O)N3CCC(CC(=O)O)CC3)cc2)cc1` [Example 1(39), 4-amidino-4'-[(4-carboxymethylpiperidino)-carbonyl]biphenyl hydrochloride]: the 50% inhibitory concentration (IC50) in data set [1] worked out at 24 nM. The concentration giving a half-maximal response (EC50) in data set [2] is 100 nM. Besides, the animals died entry with mice (mice, intravenous, 60 mg/kg, three animals tested) is recorded as “none of the three animals tested died”.
As for `N=C(N)c1ccc(-c2ccc(NC(=O)CCCC(=O)O)cc2)cc1` [1(1), 4-amidino-4'-(4-carboxybutyrylamino) biphenyl], the 50% inhibitory concentration (IC50) in data set [1] came to 160 nM. Moreover, the EC50 in data set [2] is 1100 nM. Moreover, the “sedation during the injection phase” value in the data set on mice is on record as 1 or 2 animals were sedated.
With `COC(=O)CCCCNC(=O)c1ccc(-c2ccc(C(=N)N)cc2)cc1` [6(72), 4-amidino-4'-[(4-methoxycarbonylbutyl)amino-carbonyl]biphenyl hydrochloride], the IC50 in data set [1] was found to be 7400 nM. Also, in data set [2], the EC50 is 3400 nM.
On to `N=C(N)c1ccc(-c2ccc(CC(=O)NCCC(=O)O)cc2)cc1` [Example 1, 4-Amidino-4'-[[(2-carboxyethyl)aminocarbonyl]methyl]-biphenyl], for which, in data set [1], the IC50 was 290 nM. Besides, the EC50 in data set [2] was found to be 1100 nM.
In the case of `N=C(N)c1ccc(-c2ccc(C(=O)NCCCCC(=O)O)cc2)cc1` [1(65), 4-amidino-4'-[(4-carboxybutyl)aminocarbonyl]-biphenyl hydrochloride], the IC50 in data set [1] was 220 nM. Also, the EC50 in data set [2] was determined as 2400 nM.
As for `COC(=O)CCc1cccc(NC(=O)Cc2ccc(-c3ccc(C(=N)N)cc3)cc2)c1` [6(47), 4-amidino-4'-[[[3-(2-methoxycarbonylethyl)phenyl]-aminocarbonyl]methyl]biphenyl hydrochloride], the IC50 in data set [1] stood at 4900 nM. Moreover, the EC50 in data set [2] came out at 42000 nM.
For the compound `COC(=O)C1CCN(C(=O)COc2ccc(-c3ccc(C(=N)N)cc3)cc2)CC1` [6(48), 4-amidino-4'-[[(4-methoxycarbonylpiperidino)-carbonyl]methyloxy]biphenyl hydrochloride], the IC50 in data set [1] stood at 25000 nM. Moreover, the EC50 in data set [2] was found to be 590 nM.
With `COc1ccc(CCNC(=O)C(CC(=O)O)NC(=O)Cc2ccc(-c3ccc(C(=N)N)cc3)cc2)cc1.Cl` (stereo not shown) [2(11), 4-amidino-4'-[[2-carboxy-1-[[2-(4-methoxyphenyl)-ethyl]aminocarbonyl]ethylamino]carbonylmethyl]biphenyl hydrochloride], the IC50 in data set [1] amounted to 360 nM. The EC50 in data set [2] came to 2200 nM. Besides, the “sedation during the injection phase” value in the data set on mice is 1 or 2 animals were sedated.
As for `N=C(N)c1ccc(-c2ccc(C(=O)N3CCC(C(=O)O)CC3)cc2)cc1` [1(74), 4-amidino-4'-[(4-carboxypiperidino)carbonyl]-biphenyl hydrochloride], the IC50 in data set [1] is 2700 nM. Further, in data set [2], the concentration for a half-maximal effect (EC50) is 10700 nM.
Consider `COC(=O)CC1CCCN(C(=O)Cc2ccc(-c3ccc(C(=N)N)cc3)cc2)C1` (stereo not shown) [6(58), 4-amidino-4'-[(3-methoxycarbonylmethylpiperidino)-carbonylmethyl]biphenyl hydrochloride], for which the IC50 in data set [1] was 34000 nM. Further, in data set [2], the EC50 was 23000 nM.
Taken in the same sequence, the figures for `N=C(N)c1ccc(-c2ccc(OCC(=O)NCCC(=O)O)cc2)cc1` [1(4), 4-amidino-4'-[[(2-carboxyethyl)aminocarbonyl]-methyloxy]biphenyl] were 350 nM and 1700 nM.
As for `COC(=O)C1CCC(NC(=O)c2ccc(-c3ccc(C(=N)N)cc3)cc2)CC1` (stereo not shown) [6(87), 4-amidino-4'-[(4-methoxycarbonylcyclohexyl)-aminocarbonyl]biphenyl hydrochloride], in data set [1], the IC50 is 3800 nM. In addition, in data set [2], the EC50 is 60 nM.
The corresponding values for `COC(=O)CCCC(=O)Nc1ccc(-c2ccc(C(=N)N)cc2)cc1` [6(1), 4-amidino-4'-(4-methoxycarbonylbutyrylamino)-biphenyl hydrochloride] are 5600 nM and 3700 nM.
Taken in the same sequence, the figures for `COC(=O)Cc1cccc(NC(=O)c2ccc(-c3ccc(C(=N)N)cc3)cc2)c1` [6(4), 4-amidino-4'-[[3-(methoxycarboxylmethyl)phenyl]-aminocarbonyl]biphenyl hydrochloride] were 47000 nM and 4400 nM.
For `NCc1ccc(-c2ccc(C(=O)N3CCC(CC(=O)O)CC3)cc2)cc1` [10(1), 4-aminomethyl-4'-[(4-carboxymethylpiperidino)-carbonyl]biphenyl hydrochloride], in data set [1], the IC50 turned out to be 800 nM. Besides, the concentration giving a half-maximal response (EC50) in data set [2] was found to be 1800 nM.
The corresponding values for `N=C(N)c1ccc(-c2ccc(C(=O)N3CCN(CC(=O)O)CC3)cc2)cc1` [1(67), 4-amidino-4'-[(4-carboxymethylpiperazino)-carbonyl]biphenyl hydrochloride] are 180 nM and 350 nM.
As to `COC(=O)CC1CCN(C(=O)c2ccc(-c3ccc(C(=N)NC(=O)OC)cc3)cc2)CC1` [Example 8(5), 4-(N-methoxycarbonylamidino)-4'-[(4-methoxycarbonylmethylpiperidino)carbonyl]biphenyl], the “duration of inhibition of collagen-induced thrombocyte aggregation ex vivo” value in data set [3] was greater than 8 h. The toxic effects result in the data set with rat and in the data set on mouse was “no toxic effects were observed” in each case.
In the case of `N=C(N)c1ccc(-c2ccc(C(=O)N3CCN(CCC(=O)O)CC3)cc2)cc1` [1(68), 4-amidino-4'-[[4-(2-carboxyethyl)piperazino]-carbonyl]biphenyl dihydrochloride], the IC50 in data set [1] came to 560 nM. Also, in data set [2], the half-maximal effective concentration (EC50) worked out at 3400 nM.

(Values after patent US5736559A, “Biphenyl derivatives, pharmaceutical compositions containing these compounds and processes for preparing them” (Karl Thomae GmbH, priority 1991, dated 1998).)
